Source: patent US7858653B2, “2-imidazoles” (Hoffman-La Roche Inc., priority 2006, dated 2010)

Target: T1, mouse TAAR1 (Mus musculus, UniProt Q923Y8)
T1 construct: expressed in transfected cells; host or cells: HEK293 cells (ATCC # CRL-1573), stably transfected with pIRESneo2 expression plasmid; membranes prepared
Experiment: Radioligand binding assay on membranes of HEK293 cells stably expressing TAAR1
Settings: TAAR1 membrane binding; species not given; read-out: calculated Kd value of the radioligand
Experimental: Construction of TAAR Expression Plasmids and Stably Transfected Cell Lines
For the construction of expression plasmids the coding sequences of human, rat and mouse TAAR1 were amplified from genomic DNA essentially as described by Lindemann et al. (2005) genomics 85, 372-385. The Expand High Fidelity PCR System (Roche Diagnostics) was used with 1.5 mM Mg^2+ and purified PCR products were cloned into pCR2.1-TOPO cloning vector (Invitrogen) following the instructions of the manufacturer. PCR products were subcloned into the pIRESneo2 vector (BD Clontech, Palo Alto, Calif.), and expression vectors were sequence verified before introduction in cell lines.
HEK293 cells (ATCC # CRL-1573) were cultured essentially as described Lindemann et al. (2005) genomics 85, 372-385. For the generation of stably transfected cell lines HEK293 cells were transfected with the pIRESneo2 expression plasmids containing the TAAR coding sequences (described above) with Lipofectamine 2000 (Invitrogen) according to the instructions of the manufacturer, and 24 hours post transfection the culture medium was supplemented with 1 mg/ml G418 (Sigma, Buchs, Switzerland). After a culture period of about 10 d clones were isolated, expanded and tested for responsiveness to trace amines (all compounds purchased from Sigma) with the cAMP Biotrak Enzyme immunoassay (EIA) System (Amersham) following the non-acetylation EIA procedure provided by the manufacturer.
Membrane Preparation and Radioligand Binding
Cells at confluence were rinsed with ice-cold phosphate buffered saline without Ca^2+ and Mg^2+ containing 10 mM EDTA and pelleted by centrifugation at 1000 rpm for 5 minutes at 4° C. The pellet was then washed twice with ice-cold phosphate buffered saline and the cell pellet was frozen immediately by immersion in liquid nitrogen and stored until use at −80° C. The cell pellet was then suspended in 20 ml HEPES-NaOH (20 mM), pH 7.4 containing 10 mM EDTA, and homogenized with a Polytron (PT 3000, Kinematica) at 10,000 rpm for 10 seconds. The homogenate was centrifuged at 48,000×g for 30 minutes at 4° C. and the pellet resuspended in 20 ml HEPES-NaOH (20 mM), pH 7.4 containing 0.1 mM EDTA (buffer A), and homogenized with a Polytron at 10,000 rpm for 10 seconds. The homogenate was then centrifuged at 48,000×g for 30 minutes at 4° C. and the pellet resuspended in 20 ml buffer A, and homogenized with a Polytron at 10,000 rpm for 10 seconds. Protein concentration was determined by the method of Pierce (Rockford, Ill.). The homogenate was then centrifuged at 48,000×g for 10 minutes at 4° C., resuspended in HEPES-NaOH (20 mM), pH 7.0 including MgCl2 (10 mM) and CaCl2 ([…]) (buffer B) at 200 μg protein per ml and homogenized with a Polytron at 10,000 rpm for 10 seconds.
Binding assay was performed at 4° C. in a final volume of 1 ml, and with an incubation time of 30 minutes. The radioligand [^3H]-rac-2-(1,2,3,4-tetrahydro-1-naphthyl)-2-imidazoline was used at a concentration equal to the calculated Kd value of 60 nM to give a total binding at around 0.1% of the total added radioligand concentration, and a specific binding which represented approximately 70-80% of the total binding. Non-specific binding was defined as the amount of [^3H]-rac-2-(1,2,3,4-tetrahydro-1-naphthyl)-2-imidazoline bound in the presence of the appropriate unlabelled ligand (10 μM). Competing ligands were tested in a wide range of concentrations (10 pM-30 μM). […] Each experiment was performed in duplicate. All incubations were terminated by rapid filtration through UniFilter-96 plates (Packard Instrument Company) and glass filter GF/C, pre-soaked for at least 2 hours in polyethylenimine 0.3%, and using a Filtermate 96 Cell Harvester (Packard Instrument Company). […]

T1 sequence (Q923Y8 whole entry): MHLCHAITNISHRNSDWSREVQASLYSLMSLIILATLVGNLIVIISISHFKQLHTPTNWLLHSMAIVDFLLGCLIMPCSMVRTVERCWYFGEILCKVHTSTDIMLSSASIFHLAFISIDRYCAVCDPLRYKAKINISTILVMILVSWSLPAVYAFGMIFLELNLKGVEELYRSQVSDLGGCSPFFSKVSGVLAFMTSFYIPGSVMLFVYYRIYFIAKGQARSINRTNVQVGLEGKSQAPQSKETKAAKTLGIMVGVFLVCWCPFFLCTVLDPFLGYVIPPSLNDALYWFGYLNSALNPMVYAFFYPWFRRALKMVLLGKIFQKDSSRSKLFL

Compound	Kd
c1ccc2c(c1)CCCC2C1=NCCN1 (racemic) [[^3H]-rac-2-(1,2,3,4-tetrahydro-1-naphthyl)-2-imidazoline, reference compound]	60 nM

Same assay, conditions: mouse TAAR1; radioligand [3H]-rac-2-(1,2,3,4-tetrahydro-1-naphthyl)-2-imidazoline at 60 nM; 4° C., 30 minutes

Ki	Compound
0.46 µM	CC(Nc1ncc[nH]1)c1ccccc1 (racemic) [Example 9, (R,S)-(1H-Imidazol-2-yl)-(1-phenyl-ethyl)-amine]
0.81 µM	Cc1ccccc1C(C)Nc1ncc[nH]1 (racemic) [Example 21, (R,S)-(1H-Imidazol-2-yl)-(1-o-tolyl-ethyl)-amine]
0.076 µM	CC(Nc1ncc[nH]1)c1cccc(Cl)c1Cl (racemic) [Example 22, (R,S)-[1-(2,3-Dichloro-phenyl)-ethyl]-(1H-imidazol-2-yl)-amine]
0.24 µM	CC(Nc1ncc[nH]1)c1ccccc1Cl (racemic) [Example 29, (RS)-[1-(2-Chloro-phenyl)-ethyl]-(1H-imidazol-2-yl)-amine]
0.94 µM	Cc1cccc(CNc2ncc[nH]2)c1 [Example 11, (1H-Imidazol-2-yl)-(3-methyl-benzyl)-amine]
0.98 µM	Fc1cccc(CNc2ncc[nH]2)c1 [Example 16, (3-Fluoro-benzyl)-(1H-imidazol-2-yl)-amine]
0.67 µM	c1ccc2cc(CNc3ncc[nH]3)ccc2c1 [Example 24, (1H-Imidazol-2-yl)-naphthalen-2-ylmethyl-amine]

The next lines start with the compound.

Compound	Ki
COC(Cc1ncc[nH]1)c1cccc(Cl)c1 (stereo not shown) [Example 1, 2-[2-(3-Chloro-phenyl)-2-methoxy-ethyl]-1H-imidazole]	0.78 µM
Clc1cccc(SCc2ncc[nH]2)c1Cl [Example 3, 2-(2,3-Dichloro-phenylsulfanylmethyl)-1H-imidazole]	0.14 µM
Clc1cccc(CNc2ncc[nH]2)c1 [Example 6, (3-Chloro-benzyl)-(1H-imidazol-2-yl)-amine]	0.86 µM
Clc1ccc(CNc2ncc[nH]2)cc1Cl [Example 7, (3,4-Dichloro-benzyl)-(1H-imidazol-2-yl)-amine]	0.47 µM
Clc1cccc(CNc2ncc[nH]2)c1Cl [Example 8, (2,3-Dichloro-benzyl)-(1H-imidazol-2-yl)-amine]	0.18 µM
